Reference: US20030235873A1, “Process for detecting enzyme activity in an immunoassay” (priority 2000, published 2003)
*1 amine or outer side, *2 acyl side, *3 side chain or, on linkers, in order; H or OH if unused. Where a SMILES comes first, the peptide text is derived from it. Bridges are numbered along the chain shown (N, C = ends). Where no end group is shown, it is not given here. [ ]: non-standard residue; d: D form. Adda = CO[C@@H](Cc1ccccc1)[C@@H](C)/C=C(C)/C=C/[C@H](N[*:1])[C@H](C)C(=O)[*:2]; dAsp(3S-Me) = C[C@H](C(=O)[*:3])[C@@H](N[*:1])C(=O)[*:2]; d(γGlu) = O=C(O)[C@@H](CCC(=O)[*:2])N[*:1]; pY = N[C@@H](Cc1ccc(OP(=O)(O)O)cc1)C(=O)O; pT = C[C@@H](OP(=O)(O)O)[C@H](N)C(=O)O; NMeDha = C=C(NC)C(=O)O

Tests used:
[1] = system: ac(K9)-p(S10)-specific antibody from New England Biolabs (#9711); assay: Binding of TAMRA-labelled histone H3 peptides to ac(K9)-p(S10)-specific antibody; settings: FIG. 15 and 16
From the text: (§1) The histone deacetylase assay uses fluorescently-labelled peptides (TAMRA dye as a label) derived from histone H3 sequence. In the assay two different polyclonal antibodies are used which bind specifically to acetylated lysine redidues (ac(K) at positions ac(K9) or […]). Acetylation of a single lysine results in a relative small change of the molecular structure of the aminoacid side chain. The resulting change in the binding affinity to acetyl-specific antibodies is in general difficult to detect in a homogeneous binding assay. According to the invention, therefore an additional modification (phosphorylation of serine at position (S10)) was included within the H3-peptide sequence to enhance the affinity of the peptides to the applied antibodies. From the results of three independing binding experiments (FIGS. 15-17) it is evident that dual-modified peptide conjugates confer a higher affinity for the applied antibodies when compared to mono-modified peptide conjugates. This characteristic is of great value to measure the different acetylation states of lysine residues using acetyl-specific antibodies. In principle, the described binding assay can be applied both for the detection of acetyltransferase or deacetylase activity, in particular histone acetyltransferase/deacetylase.

[2] = system: p(S10)-ac(K14)-specific antibody from Upstate Biotech (#07-081); assay: Binding of TAMRA-labelled histone H3 peptides to p(S10)-ac(K14)-specific antibody; settings: FIG. 17
From the text: as §1

PP2A phosphatase = biological target: T1, PP2A phosphatase (Homo sapiens, UniProt P67775); assay: Direct phosphatase assay: inhibition of PP2A-dependent dephosphorylation of TAMRA-P1°* peptide (fluorescence polarization read-out); type: biochemical
T1 construct: purchased Upstate Biotech 14-111 (lot no. 20574)
T1 sequence (P30153 2-589): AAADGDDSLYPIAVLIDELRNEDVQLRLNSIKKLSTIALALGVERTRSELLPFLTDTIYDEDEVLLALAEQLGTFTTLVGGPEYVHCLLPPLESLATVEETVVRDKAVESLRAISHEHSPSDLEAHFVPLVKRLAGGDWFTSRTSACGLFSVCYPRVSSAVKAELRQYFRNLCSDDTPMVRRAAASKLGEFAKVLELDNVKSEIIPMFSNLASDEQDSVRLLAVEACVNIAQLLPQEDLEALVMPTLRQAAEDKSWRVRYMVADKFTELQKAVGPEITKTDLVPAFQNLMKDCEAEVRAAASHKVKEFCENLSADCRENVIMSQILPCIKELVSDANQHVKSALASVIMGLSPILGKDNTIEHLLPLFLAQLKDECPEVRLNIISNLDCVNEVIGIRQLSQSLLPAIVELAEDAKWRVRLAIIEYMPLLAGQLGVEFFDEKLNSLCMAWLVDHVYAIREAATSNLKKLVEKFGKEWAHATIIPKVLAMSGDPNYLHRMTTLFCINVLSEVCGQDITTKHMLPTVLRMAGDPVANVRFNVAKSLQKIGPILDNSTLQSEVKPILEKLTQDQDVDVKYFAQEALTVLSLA
T1 sequence (P67775 whole entry): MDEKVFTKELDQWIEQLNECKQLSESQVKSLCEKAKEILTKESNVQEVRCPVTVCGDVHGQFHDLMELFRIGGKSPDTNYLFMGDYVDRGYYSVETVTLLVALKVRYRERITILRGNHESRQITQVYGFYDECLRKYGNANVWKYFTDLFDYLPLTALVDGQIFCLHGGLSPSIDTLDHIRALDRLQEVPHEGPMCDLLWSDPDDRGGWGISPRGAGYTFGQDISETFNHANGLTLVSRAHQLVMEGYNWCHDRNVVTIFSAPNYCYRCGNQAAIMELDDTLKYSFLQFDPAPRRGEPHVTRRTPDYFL

[3] = system: antibody NEB #9251 (polyclonal anti-active JNK antibody); assay: Fluorescence correlation spectroscopy competition of the NEB #9251 antibody-P1°*-TAMRA complex with non-fluorescent peptides; type: binding; settings: antibody 1:20 diluted, TAMRA-labelled peptide P1*° 5 nM
[4] = system: polyclonal anti active JNK antibody #9251 (New England Biolabs NEB #9251); assay: Fluorescence polarization binding of TAMRA-labelled JNK active-site peptides to anti-active JNK antibody; settings: peptide at 5 nM
Procedure: This polyclonal antibody detects all three isoforms of the SAPK1/JNK proteins only when they are activated by dual phosphorylation at threonine183/tyrosinel85. Binding of poly-clonal anti active JNK antibody #9251 (concentration: 0.02 mg/ml, equiv. 130 nM) to TAMRA-labelled P1*° peptide (at 5 nM) was measured at different antibody concentrations by fluorescence polarization. As a control, no binding of the antibody to the monophosphorylated TAMRA-P1° peptide (at 5 nM) is detected.
The results of this experiment are illustrated in FIG. 4. […] The polarization values dramatically increase when using the double-phosphorylated TAMRA-P1*° peptide in contrast to mono-phosphorylated labelled TAMRA-P1° peptide (sequences see below).

TAMRA-A-R-K-p(S10)-T-T-G-K-A [peptide #13]
Binding of the ac(K9)-p(S10)-specific antibody to the peptide [1]: only low binding

TAMRA-A-R-ac(K9)-p(S10)-T-T-G-K-A-P [peptide #10]
Binding of the ac(K9)-p(S10)-specific antibody to the peptide [1]: binding | Binding of the p(S10)-ac(K14)-specific antibody to the peptide [2]: only low binding

C=C1[C@@H](O)[C@@H]2O[C@]3(CC[C@H](/C=C/[C@@H](C)[C@@H]4CC(C)=C[C@@]5(O[C@H](C[C@@](C)(O)C(=O)O)CC[C@H]5O)O4)O3)CC[C@H]2O[C@@H]1[C@@H](O)C[C@H](C)[C@H]1O[C@@]2(CCCCO2)CC[C@H]1C [ocadaic acid]
IC50 (PP2A phosphatase; PP2A 0.003 units, P1°*-TAMRA peptide 10 nM, 30° C., read-out: IC50 (half-maximal inhibitory concentration, PP2A-dependent dephosphorylation of TAMRA-P1°* peptide)): 0.3 nM

TAMRA-A-R-ac(K9)-S-T-T-G-K-A [peptide #12]
Binding of the ac(K9)-p(S10)-specific antibody to the peptide [1]: only low binding

H-Lys-Phe-Met-Met-Thr-Pro-pTyr-Val-Val-Thr-Arg-NH2 (chain 1 H-KFMMTP; chain 2 [pY]VVTR-NH2; not fully specified (C-terminus); also: chains 1 and 2 are one peptide continuing through pTyr) [P1°, monophosphorylated control peptide]
Competition with TAMRA-labelled peptide P1*° for binding to the antibody [3]: did note compete effectively

H-Lys-Phe-Met-Met-pThr-Pro-Tyr-Val-Val-Thr-Arg-NH2 (chain 1 H-KFMM; chain 2 [pT]PYVVTR-NH2; not fully specified (C-terminus); also: chains 1 and 2 are one peptide continuing through pThr) [P1*, monophosphorylated control peptide]
Competition with TAMRA-labelled peptide P1*° for binding to the antibody [3]: did note compete effectively

5-TAMRA-AEEA-Lys-Phe-Met-Met-Thr-Pro-pTyr-Val-Val-Thr-Arg-NH2 (chain 1 KFMMTP; chain 2 YVVTR; not fully specified; 5-TAMRA-AEEA, phospho residue, C-terminal amide; printed: Lys-Phe-Met-Met-Thr-Pro-; printed: Tyr-Val-Val-Thr-Arg-) [TAMRA-P1°]
Binding of the antibody to the peptide ([4]; control): no binding

C=C1C(=O)N[C@H](C)C(=O)N[C@@H](CC(C)C)C(=O)N[C@@H](C(=O)O)[C@H](C)C(=O)N[C@@H](CCCNC(=N)N)C(=O)N[C@@H](/C=C/C(C)=C/[C@H](C)[C@H](Cc2ccccc2)OC)[C@H](C)C(=O)N[C@@H](C(=O)O)CCC(=O)N1C [microcystin-LR] (R[Adda][d(γGlu)][NMeDha][dA]L[dAsp(3S-Me)]-OH; lactam N-7)
Inhibition of PP2A (PP2A phosphatase): full inhibition

TAMRA-A-R-K-p(S10)-T-T-G-ac(K14)-A-P [peptide #11]
Binding of the ac(K9)-p(S10)-specific antibody to the peptide [1]: only low binding | Binding of the p(S10)-ac(K14)-specific antibody to the peptide [2]: binding

5-TAMRA-AEEA-Lys-Phe-Met-Met-pThr-Pro-pTyr-Val-Val-Thr-Arg-NH2 (chain 1 KFMM; chain 2 YVVTR; not fully specified; 5-TAMRA-AEEA, pThr-Pro, phospho, C-terminal amide; printed: Lys-Phe-Met-Met-; printed: Tyr-Val-Val-Thr-Arg-) [P1*°-TAMRA]
Kd ([4]; different antibody concentrations, read-out: Affinity of polyclonal anti-active-JNK antibody for peptide (KD)): 2.6 nM

H-KFMM[pT]P[pY]VVTR-NH2 [P1*°]
Competition with TAMRA-labelled peptide P1*° for binding to the antibody [3]: able to compete effectively | IC50 ([3]; read-out: IC50 (competition of antibody binding to TAMRA-labelled peptide P1*°)): 5 nM
